Results: PubChem BioAssay AID248 (DTP/NCI, 2004)
Inconclusive results and toxic doses are left out. Cut-off read from the data, not from the text of the source: active = T/C of 150% or more; inactive = T/C below 125%.

Test system: L1210 leukemia ip in BDF1 mice, survival T/C
Test: NCI In Vivo Anticancer Drug Screen. Data for tumor model L1210 Leukemia (intraperitoneal) in B6D2F1 (BDF1) mice
Settings: endpoint: mean survival time, higher = longer survival
Procedure, shortened: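 Tumor cells were implanted, animals were treated, and survival was followed. The result divides the treated measurement by the vehicle-control measurement.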

[1] = dose: 100.0 mg/kg/injection, schedule: Q04DX003 (ip), vehicle: saline with Tween-80
[2] = dose: 200.0 mg/kg/injection, schedule: Q04DX003 (ip), vehicle: saline with Tween-80
[3] = dose: 400.0 mg/kg/injection, schedule: Q04DX003 (ip), vehicle: saline with Tween-80
[4] = dose: 100.0 mg/kg/injection, schedule: Q04DX002 (ip), vehicle: Klucel (hydroxypropylcellulose) (HPC)
[5] = dose: 200.0 mg/kg/injection, schedule: Q04DX002 (ip), vehicle: Klucel (hydroxypropylcellulose) (HPC)
[6] = dose: 400.0 mg/kg/injection, schedule: Q04DX002 (ip), vehicle: Klucel (hydroxypropylcellulose) (HPC)
[7] = dose: 100.0 mg/kg/injection, schedule: Q04DX003 (ip), vehicle: saline
[8] = dose: 200.0 mg/kg/injection, schedule: Q04DX003 (ip), vehicle: saline
[9] = dose: 400.0 mg/kg/injection, schedule: Q04DX003 (ip), vehicle: saline
[10] = dose: 100.0 mg/kg/injection, schedule: Q04DX003 (ip), vehicle: carboxymethylcellulose (CMC)
[11] = dose: 200.0 mg/kg/injection, schedule: Q04DX003 (ip), vehicle: carboxymethylcellulose (CMC)
[12] = dose: 400.0 mg/kg/injection, schedule: Q04DX003 (ip), vehicle: carboxymethylcellulose (CMC)
[13] = dose: 100.0 mg/kg/injection, schedule: Q01DX001 (ip), vehicle: saline
[14] = dose: 200.0 mg/kg/injection, schedule: Q01DX001 (ip), vehicle: saline
[15] = dose: 400.0 mg/kg/injection, schedule: Q01DX001 (ip), vehicle: saline

Measured: T/C

ClC1=C(Cl)[C@@]2(Cl)[C@H]3[C@H]4C[C@H]([C@@H]5O[C@H]45)[C@H]3[C@@]1(Cl)C2(Cl)Cl
inactive: dose: 1.0 mg/kg/injection, schedule: Q01DX009 (ip), vehicle: acetone 102 % of control | dose: 2.0 mg/kg/injection, schedule: Q01DX009 (ip), vehicle: acetone 93 % of control | dose: 4.0 mg/kg/injection, schedule: Q01DX009 (ip), vehicle: acetone 96 % of control | dose: 8.0 mg/kg/injection, schedule: Q01DX009 (ip), vehicle: acetone 86 % of control | dose: 25.0 mg/kg/injection, schedule: Q01DX001 (ip), vehicle: acetone 102 % of control

CCCCS(=O)(=O)Oc1ccc(N)c([N+](=O)[O-])c1
inactive: [1] 101 % of control | [2] 101 % of control | [3] 88 % of control

N#CCCC1C(C#N)C2CC1C1C3CCC(C3)C21 (stereo unspecified)
inactive: dose: 100.0 mg/kg/injection, schedule: Q01DX009 (ip), vehicle: other 100 % of control | dose: 200.0 mg/kg/injection, schedule: Q01DX009 (ip), vehicle: other 101 % of control | dose: 400.0 mg/kg/injection, schedule: Q01DX009 (ip), vehicle: other 90 % of control

CCCCCCCCC(=O)N1CCCCC1C (stereo unspecified)
inactive: [4] 96 % of control | [5] 100 % of control | [6] 88 % of control

C/C(N)=C\C#N
inactive: dose: 50.0 mg/kg/injection, schedule: Q01DX001 (ip), vehicle: saline 91 % of control

O=C(O)C1CC=CCC1c1c2ccc(=O)cc-2oc2cc(O)ccc12 (stereo unspecified)
inactive: [7] 98 % of control | [8] 94 % of control | [9] 91 % of control

O=C1c2ccccc2-c2c(O)cccc21
inactive: dose: 100.0 mg/kg/injection, schedule: Q01DX001 (ip), vehicle: Klucel (hydroxypropylcellulose) (HPC) 94 % of control | dose: 200.0 mg/kg/injection, schedule: Q01DX001 (ip), vehicle: Klucel (hydroxypropylcellulose) (HPC) 100 % of control | dose: 400.0 mg/kg/injection, schedule: Q01DX001 (ip), vehicle: Klucel (hydroxypropylcellulose) (HPC) 96 % of control

COP(S)(=N/N=C/c1ccccn1)OC
inactive: dose: 12.5 mg/kg/injection, schedule: Q04DX003 (ip), vehicle: saline with Tween-80 104 % of control | dose: 25.0 mg/kg/injection, schedule: Q04DX003 (ip), vehicle: saline with Tween-80 95 % of control

O=C(Nc1cccc(C2=NCCN2)c1)Nc1cccc(C2=NCCN2)c1
inactive: dose: 6.0 mg/kg/injection, schedule: Q01DX Z (ip), vehicle: water 104 % of control | dose: 12.0 mg/kg/injection, schedule: Q01DX Z (ip), vehicle: water 101 % of control | dose: 25.0 mg/kg/injection, schedule: Q01DX Z (ip), vehicle: water 97 % of control

O=C(Oc1cc(Cl)c(S(=O)(=O)F)cc1Cl)c1ccccc1Cl
inactive: [10] 88 % of control | [11] 90 % of control | [12] 88 % of control

CC(C)C(=O)Nc1cccc(OC(=O)NC(C)(C)C)c1
inactive: dose: 200.0 mg/kg/injection, schedule: Q01DX001 (ip), vehicle: saline with Tween-80 89 % of control | dose: 400.0 mg/kg/injection, schedule: Q01DX001 (ip), vehicle: saline with Tween-80 87 % of control

CCOC(=O)NP(=O)(Nc1ccc(C)cc1)Nc1ccc(C)cc1
inactive: dose: 50.0 mg/kg/injection, schedule: Q01DX001 (ip), vehicle: carboxymethylcellulose (CMC) 104 % of control | dose: 100.0 mg/kg/injection, schedule: Q01DX001 (ip), vehicle: carboxymethylcellulose (CMC) 98 % of control | dose: 200.0 mg/kg/injection, schedule: Q01DX001 (ip), vehicle: carboxymethylcellulose (CMC) 95 % of control | dose: 400.0 mg/kg/injection, schedule: Q01DX001 (ip), vehicle: carboxymethylcellulose (CMC) 98 % of control

CC(=N\O)/C(=N/O)c1ccc(O)cc1
inactive: dose: 5.0 mg/kg/injection, schedule: Q01DX001 (ip), vehicle: saline 97 % of control | dose: 10.0 mg/kg/injection, schedule: Q01DX001 (ip), vehicle: saline 100 % of control | dose: 20.0 mg/kg/injection, schedule: Q01DX001 (ip), vehicle: saline 97 % of control

CC1CCN(C(=O)C(c2ccccc2)c2ccccc2)CC1
inactive: [4] 101 % of control | [5] 86 % of control | [6] 101 % of control

CC(=O)OC(C)C(C)Br (stereo unspecified)
inactive: dose: 50.0 mg/kg/injection, schedule: Q04DX002 (ip), vehicle: Klucel (hydroxypropylcellulose) (HPC) 93 % of control | dose: 100.0 mg/kg/injection, schedule: Q01DX001 (ip), vehicle: acetone 89 % of control | [4] 100 % of control | dose: 200.0 mg/kg/injection, schedule: Q01DX001 (ip), vehicle: acetone 92 % of control

CCOC(=O)c1c(C)c2c(n1C)CCCC2O (stereo unspecified)
inactive: [10] 101 % of control | [11] 98 % of control | [12] 95 % of control

Cc1ccc(C2(CO)OCC(O)C(O)C2O)cc1 (stereo unspecified)
inactive: [13] 100 % of control | [14] 96 % of control | [15] 98 % of control

COc1ccc(C2CC(=O)OC(=O)C2)cc1
inactive: dose: 25.6 mg/kg/injection, schedule: Q04DX002 (ip), vehicle: saline with Tween-80 101 % of control | dose: 64.0 mg/kg/injection, schedule: Q04DX002 (ip), vehicle: saline with Tween-80 101 % of control | dose: 160.0 mg/kg/injection, schedule: Q04DX002 (ip), vehicle: saline with Tween-80 101 % of control | [2] 97 % of control | dose: 400.0 mg/kg/injection, schedule: Q04DX002 (ip), vehicle: saline with Tween-80 95 % of control | [3] 92 % of control

COc1ccc2c3c1OC1C(C)=CCC4C(C2)N(C)CCC314 (stereo unspecified)
inactive: dose: 75.0 mg/kg/injection, schedule: Q01DX001 (ip), vehicle: saline 101 % of control

CCOP(=O)(OCC)c1cccc(N)c1
inactive: [7] 100 % of control | [8] 87 % of control | [9] 100 % of control

CCOP(=S)(OCC)SC(C)C
inactive: [1] 97 % of control | [2] 97 % of control

CC(=O)CC(=O)Nc1ccc(Cc2ccccc2)cc1
inactive: [13] 93 % of control | [14] 94 % of control | [15] 109 % of control

COC(=O)CNC(=O)C1CSC(C)(C)N1C=O (stereo unspecified)
inactive: [7] 104 % of control | [8] 101 % of control | [9] 98 % of control

O=C(O)C1CCCCN1O (stereo unspecified)
inactive: [13] 102 % of control | [14] 104 % of control | [15] 104 % of control

Nc1ccc(C(=O)Oc2ccccc2)c(O)c1
inactive: dose: 100.0 mg/kg/injection, schedule: Q04DX003 (ip), vehicle: Klucel (hydroxypropylcellulose) (HPC) 95 % of control | dose: 200.0 mg/kg/injection, schedule: Q04DX003 (ip), vehicle: Klucel (hydroxypropylcellulose) (HPC) 93 % of control | dose: 400.0 mg/kg/injection, schedule: Q04DX003 (ip), vehicle: Klucel (hydroxypropylcellulose) (HPC) 95 % of control

CCC(Nc1ccccc1)C(=O)O (stereo unspecified)
inactive: [13] 96 % of control | [14] 100 % of control | [15] 102 % of control

COc1cccc(OC)c1C1(O)c2c(OC)cccc2Oc2cccc(OC)c21
inactive: dose: 100.0 mg/kg/injection, schedule: Q01DX009 (ip), vehicle: saline with Tween-80 93 % of control | dose: 200.0 mg/kg/injection, schedule: Q01DX009 (ip), vehicle: saline with Tween-80 90 % of control | dose: 400.0 mg/kg/injection, schedule: Q01DX009 (ip), vehicle: saline with Tween-80 90 % of control
